Reference: ChEMBL document CHEMBL1201862, “PubChem BioAssay data set” (2004)
Activity calls are given as the source filed them.

Key:
[1] = molecular target: T1, Cytochrome P450 2D6 (Homo sapiens, UniProt P10635);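 also: CYP2D6 member of a cytochrome P450 panel assay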
[2] = molecular target: Cytochrome P450 2C9 (Homo sapiens, UniProt P11712)
[3] = molecular target: T2, Cytochrome P450 3A4 (Homo sapiens, UniProt P08684);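 also: CYP3A4 tested as one member of a cytochrome P450 panel screen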
[4] = molecular target: T3, Tyrosine-protein phosphatase non-receptor type 7 (Homo sapiens, UniProt P35236); assay type: functional
T3 sequence (P35236 whole entry): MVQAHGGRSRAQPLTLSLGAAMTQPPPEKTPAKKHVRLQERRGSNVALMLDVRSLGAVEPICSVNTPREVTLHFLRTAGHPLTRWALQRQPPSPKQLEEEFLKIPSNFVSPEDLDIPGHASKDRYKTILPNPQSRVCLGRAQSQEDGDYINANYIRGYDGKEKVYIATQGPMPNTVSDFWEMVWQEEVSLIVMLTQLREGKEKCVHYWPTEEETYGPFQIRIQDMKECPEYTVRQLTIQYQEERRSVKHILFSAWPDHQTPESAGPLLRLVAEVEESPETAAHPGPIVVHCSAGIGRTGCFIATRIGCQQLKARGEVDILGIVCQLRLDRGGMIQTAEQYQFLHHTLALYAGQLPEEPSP

[5] = molecular target: T4, Bcl-2-like protein 10 (Homo sapiens, UniProt Q9HD36); assay: displacers of TR3 peptide from Bcl-B, primary screen, selectivity assay for Bfl-1 inhibitor project, biochemical, fluorescence polarization, FITC-TR3 peptide (AID 748);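 also: fluorescence polarization from a fluorescein-labelled TR3 peptide binding purified Bcl-B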
T4 sequence (Q9HD36 whole entry): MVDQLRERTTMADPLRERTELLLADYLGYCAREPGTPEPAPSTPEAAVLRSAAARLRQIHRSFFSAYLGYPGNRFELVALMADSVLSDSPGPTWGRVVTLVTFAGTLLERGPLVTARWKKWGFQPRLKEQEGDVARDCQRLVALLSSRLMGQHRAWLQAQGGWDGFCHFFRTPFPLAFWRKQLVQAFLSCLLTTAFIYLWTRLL

[6] = molecular target: Glyceraldehyde-3-phosphate dehydrogenase (Homo sapiens, UniProt P04406)
Chain of Glyceraldehyde-3-phosphate dehydrogenase (P04406 whole entry): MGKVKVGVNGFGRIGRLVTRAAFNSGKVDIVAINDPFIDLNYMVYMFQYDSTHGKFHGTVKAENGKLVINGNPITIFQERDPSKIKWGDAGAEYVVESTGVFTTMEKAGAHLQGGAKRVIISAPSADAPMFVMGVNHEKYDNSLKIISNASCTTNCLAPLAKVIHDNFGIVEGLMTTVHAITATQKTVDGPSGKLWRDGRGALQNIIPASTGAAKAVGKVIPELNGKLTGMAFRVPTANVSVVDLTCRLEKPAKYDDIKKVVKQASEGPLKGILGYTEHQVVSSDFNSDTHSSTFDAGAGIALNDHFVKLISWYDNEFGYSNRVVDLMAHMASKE

[7] = molecular target: Induced myeloid leukemia cell differentiation protein Mcl-1 (Homo sapiens, UniProt Q07820); assay: MCL1-BIM BH3 interaction inhibitors, dose response, biochemical, fluorescence polarization, BIM-BH3 peptide, 1536-well (AID 2217)
Chain of Induced myeloid leukemia cell differentiation protein Mcl-1 (Q07820 whole entry): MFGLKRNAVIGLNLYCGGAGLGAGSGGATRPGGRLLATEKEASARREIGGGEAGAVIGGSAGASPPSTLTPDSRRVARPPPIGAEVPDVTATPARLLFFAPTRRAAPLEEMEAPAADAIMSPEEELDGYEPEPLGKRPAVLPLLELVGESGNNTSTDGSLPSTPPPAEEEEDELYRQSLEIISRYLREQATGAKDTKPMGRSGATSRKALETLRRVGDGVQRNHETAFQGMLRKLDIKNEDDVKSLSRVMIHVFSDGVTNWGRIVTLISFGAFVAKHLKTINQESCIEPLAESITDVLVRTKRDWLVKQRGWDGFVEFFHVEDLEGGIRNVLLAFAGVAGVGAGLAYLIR

[8] = molecular target: T5, Dual specificity protein phosphatase 6 (Rattus norvegicus, UniProt Q64346)
T5 sequence (Q64346 whole entry): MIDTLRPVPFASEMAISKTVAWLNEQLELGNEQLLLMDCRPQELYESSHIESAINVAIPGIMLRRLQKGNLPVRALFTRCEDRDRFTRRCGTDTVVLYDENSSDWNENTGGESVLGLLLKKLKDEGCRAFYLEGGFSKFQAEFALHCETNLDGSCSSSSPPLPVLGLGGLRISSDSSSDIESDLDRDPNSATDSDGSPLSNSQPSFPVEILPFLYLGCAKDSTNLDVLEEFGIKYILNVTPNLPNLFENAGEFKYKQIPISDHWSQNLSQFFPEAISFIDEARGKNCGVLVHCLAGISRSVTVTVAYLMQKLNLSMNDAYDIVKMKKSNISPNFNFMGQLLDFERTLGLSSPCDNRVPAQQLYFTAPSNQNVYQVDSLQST

[9] = molecular target: Bcl-2-like protein 1 (Homo sapiens, UniProt Q07817); assay: BCL-XL inhibitors, dose response, selectivity assay for MCL1 inhibitor project, biochemical, fluorescence polarization, 1536-well (AID 2218)
Chain of Bcl-2-like protein 1 (Q07817 whole entry): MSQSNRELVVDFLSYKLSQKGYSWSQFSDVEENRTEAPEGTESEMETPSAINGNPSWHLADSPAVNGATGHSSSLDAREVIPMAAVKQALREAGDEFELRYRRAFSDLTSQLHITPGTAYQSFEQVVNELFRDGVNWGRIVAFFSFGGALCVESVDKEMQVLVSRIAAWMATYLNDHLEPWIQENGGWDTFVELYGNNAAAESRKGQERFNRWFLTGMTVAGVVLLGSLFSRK

[10] = molecular target: T5, Dual specificity protein phosphatase 6; assay: MKP-3 phosphatase inhibitors, primary screen, biochemical, rat enzyme, in vitro (AID 425)
[11] = molecular target: Dual specificity protein phosphatase 3 (Homo sapiens, UniProt P51452); assay: SAR VHR1 Fluorescent Assay for In Vitro dose response studies. [Related pubchem assays (depositor defined):AID1654, AID1661, AID1878, AID1992, AID2004, AID2070, AID2085]; assay type: functional
Chain of Dual specificity protein phosphatase 3 (P51452 whole entry): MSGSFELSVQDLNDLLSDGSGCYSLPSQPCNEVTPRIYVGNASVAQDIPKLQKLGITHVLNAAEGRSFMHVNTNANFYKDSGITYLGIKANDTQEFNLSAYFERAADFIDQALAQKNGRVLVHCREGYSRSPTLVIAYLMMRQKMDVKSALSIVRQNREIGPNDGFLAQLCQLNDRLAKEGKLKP

[12] = molecular target: T3, Tyrosine-protein phosphatase non-receptor type 7; assay: redox-dependent HePTP inhibition, mechanism study, biochemical, fluorescence (AID 2068); assay type: functional
[13] = molecular target: T5, Dual specificity protein phosphatase 6; assay type: functional
[14] = molecular target: T6, Protein Tat (Human immunodeficiency virus type 1 group M subtype B (isolate HXB2)(HIV-1), UniProt P04608); assay type: functional;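 also: tat binding to TAR RNA read out by fluorescence polarization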
T6 sequence (P04608 whole entry): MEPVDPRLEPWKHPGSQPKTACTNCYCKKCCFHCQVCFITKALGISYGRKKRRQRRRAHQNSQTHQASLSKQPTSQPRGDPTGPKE

[15] = molecular target: UDP-galactopyranose mutase (Mycobacterium tuberculosis, UniProt P9WIQ1); assay: Inhibitors of Mycobacterium tuberculosis UDP-galactopyranose mutase (UGM) enzyme Measured in Biochemical System Using Plate Reader - 2105-02_Inhibitor_Dose_CherryPick_Activity. [Related pubchem assays (depositor defined):AID504439]
Chain of UDP-galactopyranose mutase (P9WIQ1 whole entry): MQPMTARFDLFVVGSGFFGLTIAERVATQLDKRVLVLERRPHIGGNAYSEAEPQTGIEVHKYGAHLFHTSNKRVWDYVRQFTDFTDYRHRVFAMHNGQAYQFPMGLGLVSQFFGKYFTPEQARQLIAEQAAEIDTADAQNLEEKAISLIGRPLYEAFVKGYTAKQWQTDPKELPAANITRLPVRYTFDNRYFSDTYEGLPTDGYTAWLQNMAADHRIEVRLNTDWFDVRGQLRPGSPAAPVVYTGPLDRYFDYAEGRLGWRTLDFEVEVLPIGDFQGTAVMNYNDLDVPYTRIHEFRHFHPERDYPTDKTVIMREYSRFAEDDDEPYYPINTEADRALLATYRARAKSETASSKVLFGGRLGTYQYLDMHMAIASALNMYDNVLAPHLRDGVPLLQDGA

[16] = molecular target: Cytochrome P450 2C19 (Homo sapiens, UniProt P33261); assay: Cytochrome panel assay with activity outcomes. Panel member name: p450-cyp2c19 Compounds with AC50 equal or less than 10 uM are considered active; assay type: functional; conditions: read-out: AC50
Chain of Cytochrome P450 2C19 (P33261 whole entry): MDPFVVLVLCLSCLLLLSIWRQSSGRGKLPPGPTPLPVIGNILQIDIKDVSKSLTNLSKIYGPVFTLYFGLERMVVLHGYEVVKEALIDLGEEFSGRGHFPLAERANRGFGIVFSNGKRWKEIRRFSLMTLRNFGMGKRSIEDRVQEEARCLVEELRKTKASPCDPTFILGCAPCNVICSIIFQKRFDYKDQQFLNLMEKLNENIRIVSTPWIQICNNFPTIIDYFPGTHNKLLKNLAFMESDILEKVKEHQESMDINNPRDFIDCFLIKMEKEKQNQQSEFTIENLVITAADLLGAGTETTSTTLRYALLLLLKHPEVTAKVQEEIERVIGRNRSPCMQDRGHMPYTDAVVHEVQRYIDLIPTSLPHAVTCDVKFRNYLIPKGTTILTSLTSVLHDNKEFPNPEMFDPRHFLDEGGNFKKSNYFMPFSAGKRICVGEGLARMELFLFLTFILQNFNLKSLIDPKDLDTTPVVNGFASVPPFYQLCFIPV

[17] = molecular target: T7, Cytochrome P450 1A2 (Homo sapiens, UniProt P05177);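 also: PubChem cytochrome P450 panel assay, CYP1A2 panel member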
T7 sequence (P05177 whole entry): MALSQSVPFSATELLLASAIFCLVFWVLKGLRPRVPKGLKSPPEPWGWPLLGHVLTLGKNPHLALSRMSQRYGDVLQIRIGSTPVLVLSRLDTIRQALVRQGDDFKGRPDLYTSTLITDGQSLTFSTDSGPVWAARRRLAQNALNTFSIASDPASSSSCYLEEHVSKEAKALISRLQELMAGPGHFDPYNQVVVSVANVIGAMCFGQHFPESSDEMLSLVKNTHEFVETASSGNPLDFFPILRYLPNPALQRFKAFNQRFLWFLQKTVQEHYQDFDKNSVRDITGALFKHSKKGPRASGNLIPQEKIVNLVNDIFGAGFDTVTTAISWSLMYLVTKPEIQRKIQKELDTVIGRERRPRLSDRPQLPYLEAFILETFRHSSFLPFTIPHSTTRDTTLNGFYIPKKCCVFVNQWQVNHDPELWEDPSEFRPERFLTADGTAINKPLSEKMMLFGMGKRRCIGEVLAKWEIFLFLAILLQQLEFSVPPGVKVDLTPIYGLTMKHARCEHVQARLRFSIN

[18] = molecular target: T2, Cytochrome P450 3A4; remark: listed apart in the source
[19] = molecular target: T1, Cytochrome P450 2D6; remark: listed apart in the source
[20] = Intein inhibitors as potential Tuberculosis drugs, a cytotoxicity screen. [Related pubchem assays (depositor defined):AID2221, AID2223, AID434968, AID435010, AID449749, AID449750, AID489010]; assay type: functional
[21] = molecular target: G-protein coupled receptor 55 (Homo sapiens, UniProt Q9Y2T6); assay: GPR55 antagonists, SAR follow-up, counter-screen for GPR35 antagonist project, imaging, image-based (AID 2397); assay type: functional
Chain of G-protein coupled receptor 55 (Q9Y2T6 whole entry): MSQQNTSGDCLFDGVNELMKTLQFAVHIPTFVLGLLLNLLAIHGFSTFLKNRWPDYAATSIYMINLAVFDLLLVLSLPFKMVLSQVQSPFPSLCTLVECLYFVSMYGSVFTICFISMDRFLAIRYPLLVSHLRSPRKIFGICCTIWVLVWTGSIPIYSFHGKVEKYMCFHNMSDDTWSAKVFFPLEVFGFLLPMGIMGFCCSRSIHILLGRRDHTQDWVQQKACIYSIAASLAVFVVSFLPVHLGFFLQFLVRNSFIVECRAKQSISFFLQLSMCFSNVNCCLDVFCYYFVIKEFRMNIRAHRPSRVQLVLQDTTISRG

[22] = molecular target: T8, Replicative DNA helicase DnaB (Mycobacterium tuberculosis, UniProt P9WMR3); assay: DnaB intein splicing inhibitors, dose response, biochemical, cell-free fluorescence (AID 449749); assay type: functional
T8 sequence (P9WMR3 whole entry): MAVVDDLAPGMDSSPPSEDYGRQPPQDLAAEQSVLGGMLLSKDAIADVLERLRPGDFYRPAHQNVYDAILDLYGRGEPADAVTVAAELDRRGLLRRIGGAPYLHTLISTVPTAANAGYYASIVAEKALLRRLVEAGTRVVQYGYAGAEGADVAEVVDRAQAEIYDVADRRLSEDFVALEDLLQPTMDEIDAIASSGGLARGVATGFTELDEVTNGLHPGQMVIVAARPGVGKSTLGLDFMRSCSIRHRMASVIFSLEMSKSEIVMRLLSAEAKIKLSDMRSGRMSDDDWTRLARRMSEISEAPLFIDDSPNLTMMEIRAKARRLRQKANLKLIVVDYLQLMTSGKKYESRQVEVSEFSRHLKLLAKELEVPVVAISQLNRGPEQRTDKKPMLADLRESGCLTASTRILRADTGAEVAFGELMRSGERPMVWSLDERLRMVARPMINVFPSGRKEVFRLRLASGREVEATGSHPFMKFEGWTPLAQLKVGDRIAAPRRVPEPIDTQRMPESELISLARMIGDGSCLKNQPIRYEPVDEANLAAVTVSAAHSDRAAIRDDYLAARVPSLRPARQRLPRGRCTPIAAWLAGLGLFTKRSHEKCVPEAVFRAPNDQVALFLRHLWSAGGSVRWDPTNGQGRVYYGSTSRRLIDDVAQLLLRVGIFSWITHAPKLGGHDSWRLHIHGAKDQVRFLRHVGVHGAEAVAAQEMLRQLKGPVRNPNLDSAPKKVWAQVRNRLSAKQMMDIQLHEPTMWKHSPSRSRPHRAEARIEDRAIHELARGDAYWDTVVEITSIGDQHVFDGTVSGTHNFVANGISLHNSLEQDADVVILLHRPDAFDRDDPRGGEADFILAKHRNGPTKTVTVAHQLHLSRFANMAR

[23] = molecular target: T9, Protein RecA (Mycobacterium tuberculosis, UniProt P9WHJ3); assay: Fluorescence Cell-Free Homogeneous Dose Retest to Identify Inhibitors of RecA-Intein Splicing Activity. [Related pubchem assays (depositor defined):AID2097, AID2223, AID489010, AID492950]; assay type: functional
T9 sequence (P9WHJ3 whole entry): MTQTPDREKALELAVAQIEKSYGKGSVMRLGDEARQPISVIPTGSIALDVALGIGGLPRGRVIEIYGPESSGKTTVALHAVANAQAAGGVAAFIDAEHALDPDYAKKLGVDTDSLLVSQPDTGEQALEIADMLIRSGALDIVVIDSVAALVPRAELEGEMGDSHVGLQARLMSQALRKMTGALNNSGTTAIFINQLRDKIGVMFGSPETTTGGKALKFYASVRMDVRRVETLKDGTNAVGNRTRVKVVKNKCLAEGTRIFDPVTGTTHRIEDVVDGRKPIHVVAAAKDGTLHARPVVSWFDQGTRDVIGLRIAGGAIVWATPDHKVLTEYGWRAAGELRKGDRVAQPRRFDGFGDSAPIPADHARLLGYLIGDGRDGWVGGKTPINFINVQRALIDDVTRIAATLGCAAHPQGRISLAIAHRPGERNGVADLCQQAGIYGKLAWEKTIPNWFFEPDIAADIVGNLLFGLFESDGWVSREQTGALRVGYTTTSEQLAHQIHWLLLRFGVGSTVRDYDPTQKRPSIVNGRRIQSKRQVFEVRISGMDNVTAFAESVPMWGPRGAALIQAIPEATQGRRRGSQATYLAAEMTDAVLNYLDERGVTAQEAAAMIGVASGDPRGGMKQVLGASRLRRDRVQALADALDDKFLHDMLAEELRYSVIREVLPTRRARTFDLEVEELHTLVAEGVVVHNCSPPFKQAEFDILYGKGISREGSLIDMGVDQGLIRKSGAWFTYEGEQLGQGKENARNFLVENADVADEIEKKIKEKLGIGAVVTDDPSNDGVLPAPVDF

[24] = molecular target: T10, Protein skinhead-1 (Caenorhabditis elegans, UniProt P34707); assay type: functional
T10 sequence (P34707 whole entry): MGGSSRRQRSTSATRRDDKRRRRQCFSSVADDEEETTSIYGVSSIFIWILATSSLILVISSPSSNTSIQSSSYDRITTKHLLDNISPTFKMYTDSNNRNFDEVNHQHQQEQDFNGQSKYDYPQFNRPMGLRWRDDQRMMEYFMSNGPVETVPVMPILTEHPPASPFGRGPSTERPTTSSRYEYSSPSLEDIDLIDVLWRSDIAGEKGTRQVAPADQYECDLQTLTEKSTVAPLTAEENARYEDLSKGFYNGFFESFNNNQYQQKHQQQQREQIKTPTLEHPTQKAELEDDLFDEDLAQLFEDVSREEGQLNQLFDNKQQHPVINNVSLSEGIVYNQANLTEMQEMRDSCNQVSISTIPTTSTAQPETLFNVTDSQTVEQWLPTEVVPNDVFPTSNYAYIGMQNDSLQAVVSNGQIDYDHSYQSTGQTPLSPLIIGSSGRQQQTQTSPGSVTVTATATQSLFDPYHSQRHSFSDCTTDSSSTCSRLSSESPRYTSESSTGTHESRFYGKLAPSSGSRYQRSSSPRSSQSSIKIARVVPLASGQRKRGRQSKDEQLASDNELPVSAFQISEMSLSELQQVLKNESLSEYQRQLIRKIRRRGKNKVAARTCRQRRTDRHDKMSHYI
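For CC50 in this document: cells exposed to compound for 72 hours before luminescence readout.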

T2 sequence (P08684 whole entry): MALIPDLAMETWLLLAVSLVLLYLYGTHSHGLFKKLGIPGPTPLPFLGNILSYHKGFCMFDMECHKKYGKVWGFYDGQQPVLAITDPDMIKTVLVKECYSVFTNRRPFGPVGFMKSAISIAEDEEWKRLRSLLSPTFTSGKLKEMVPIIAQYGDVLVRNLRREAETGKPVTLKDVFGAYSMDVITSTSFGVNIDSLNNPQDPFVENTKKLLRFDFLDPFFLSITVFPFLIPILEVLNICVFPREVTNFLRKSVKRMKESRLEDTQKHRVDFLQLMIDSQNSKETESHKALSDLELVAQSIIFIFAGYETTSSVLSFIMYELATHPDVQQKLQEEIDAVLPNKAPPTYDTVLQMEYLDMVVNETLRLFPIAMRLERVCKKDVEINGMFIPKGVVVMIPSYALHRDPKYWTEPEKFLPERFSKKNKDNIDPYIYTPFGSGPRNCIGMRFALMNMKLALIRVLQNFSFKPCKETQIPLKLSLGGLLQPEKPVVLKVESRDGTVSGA
T1 sequence (P10635 whole entry): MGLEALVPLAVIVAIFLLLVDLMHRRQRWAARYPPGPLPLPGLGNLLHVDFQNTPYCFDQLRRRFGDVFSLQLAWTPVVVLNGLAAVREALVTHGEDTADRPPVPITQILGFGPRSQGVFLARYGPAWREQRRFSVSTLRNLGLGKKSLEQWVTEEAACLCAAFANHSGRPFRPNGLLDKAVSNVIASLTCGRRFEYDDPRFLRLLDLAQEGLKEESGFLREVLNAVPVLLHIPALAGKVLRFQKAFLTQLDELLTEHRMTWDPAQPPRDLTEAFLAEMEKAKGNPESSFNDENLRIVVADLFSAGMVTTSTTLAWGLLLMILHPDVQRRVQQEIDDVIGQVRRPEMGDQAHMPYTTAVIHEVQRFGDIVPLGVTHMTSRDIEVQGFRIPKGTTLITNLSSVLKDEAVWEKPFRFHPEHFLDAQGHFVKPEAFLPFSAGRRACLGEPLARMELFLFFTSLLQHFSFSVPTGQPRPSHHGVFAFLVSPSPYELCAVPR
Chain of Cytochrome P450 2C9 (P11712 whole entry): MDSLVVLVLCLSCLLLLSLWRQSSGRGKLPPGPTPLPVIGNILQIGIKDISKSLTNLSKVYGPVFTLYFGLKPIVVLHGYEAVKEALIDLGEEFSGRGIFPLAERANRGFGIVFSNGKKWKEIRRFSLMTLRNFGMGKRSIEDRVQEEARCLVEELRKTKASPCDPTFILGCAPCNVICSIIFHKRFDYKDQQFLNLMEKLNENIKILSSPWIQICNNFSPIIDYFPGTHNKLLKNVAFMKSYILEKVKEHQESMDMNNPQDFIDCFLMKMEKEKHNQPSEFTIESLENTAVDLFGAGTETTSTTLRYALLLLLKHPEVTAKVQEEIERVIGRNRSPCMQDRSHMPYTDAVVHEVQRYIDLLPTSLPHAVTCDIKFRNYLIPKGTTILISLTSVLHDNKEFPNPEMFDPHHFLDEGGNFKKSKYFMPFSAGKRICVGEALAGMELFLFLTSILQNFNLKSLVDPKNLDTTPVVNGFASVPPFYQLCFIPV

COC(=O)C1Cc2c([nH]c3ccccc23)CN1 (centres undefined)
AC50 [1]: 14.1 µM (inconclusive)
AC50 [2]: 25.1 µM (inconclusive)
AC50 [3]: inconclusive

c1ccc(CSc2nnc(-c3ccco3)c(-c3ccco3)n2)cc1
IC50 [4]: 13.3 µM (active)
IC50 [5]: 5.55 µM (active)
IC50 [6]: > 100 µM (not active)
IC50 [7]: 2.92 µM (active)
IC50 [8]: 23.9 µM (active)
IC50 [9]: > 109 µM (not active)
IC50 [10]: > 10 µM (not active)
IC50 [11]: 7.06 µM (active)
IC50 [12]: 0.284 µM (active)
IC50 [13]: 24.2 µM (active)
IC50 [14]: 4.04 µM (inconclusive)

COCCNC(=O)Cn1cc(C=C2C(=O)NC(=O)NC2=O)c2ccccc21
AC50 [15]: 46.3 µM (active)

CC(C)(C)c1ccc(-c2nnc(SCC(=O)c3ccc4c(c3)OCCO4)o2)cc1
AC50 [16]: 3.98 µM (inconclusive)
AC50 [17]: 2.24 µM (inconclusive)
AC50 [18]: 39.8 µM (inconclusive)
AC50 [19]: inconclusive

O=C(CCCN1C(=O)/C(=C/c2cccs2)SC1=S)Nc1ccc(O)cc1
CC50 [20]: 28.5 µM (active)
IC50 [21]: 30.5 µM (inactive)
AC50 [22]: 2.11 µM (active)
EC50 [23]: 3.25 µM (active)
IC50 [24]: > 100 µM (inactive)
